Test results reported in the supplement of paper PMC5908809.

Legend:
[1] = system: normal NK cells expanded with K562-aAPC; experiment: percent inhibition of viability; higher = more inhibition; details: 72 h, IL-2 2.5 ng/mL
Protocol: (§1)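 Drug sensitivity and resistance testing on K562-aAPC-expanded normal NK cells: 5 concentrations (10-fold steps over a 10,000-fold range), 72 h at 37 °C, viability by CellTiter-Glo normalised to DMSO and benzethonium chloride controls; DSS from the fitted curve.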

DERL-7 (IL-2 2.5 ng/mL) [2] = experiment: as above; details: 72 h
IMC-1 (IL-2 20 ng/mL) [3] = experiment: as above; details: 72 h
KAI3 (IL-2 2.5 ng/mL) [4] = experiment: as above; details: 72 h
KHYG-1 (IL-2 2.5 ng/mL) [5] = experiment: as above; details: 72 h
NK-92 (IL-2 2.5 ng/mL) [6] = experiment: as above; details: 72 h
NK-YS (IL-2 2.5 ng/mL) [7] = experiment: as above; details: 72 h
NKL (IL-2 2.5 ng/mL) [8] = experiment: as above; details: 72 h
SNK-6 (IL-2 2.5 ng/mL) [9] = experiment: as above; details: 72 h
YT (IL-2 2.5 ng/mL) [10] = experiment: as above; details: 72 h
[11] = system: normal primary NK cells, pool 1 (3 donors) (IL-2 2.5 ng/mL); experiment: as above; details: 72 h
[12] = system: normal primary NK cells, pool 1 (3 donors), resting (IL-2 0 ng/mL); experiment: as above; details: 72 h
[13] = system: normal primary NK cells, pool 2 (3 donors) (IL-2 2.5 ng/mL); experiment: as above; details: 72 h
[14] = system: normal primary NK cells, pool 3 (3 donors) (IL-2 2.5 ng/mL); experiment: as above; details: 72 h
[15] = system: normal NK cells expanded with K562-aAPC; experiment: drug sensitivity score (DSS) (DSS units); higher = more sensitive; extreme values may be limits of the assay; details: 72 h; IL-2 2.5 ng/mL
Protocol: as §1

DERL-7 (IL-2 2.5 ng/mL) [16] = experiment: as above; details: 72 h
IMC-1 (IL-2 20 ng/mL) [17] = experiment: as above; details: 72 h
KAI3 (IL-2 2.5 ng/mL) [18] = experiment: as above; details: 72 h
KHYG-1 (IL-2 2.5 ng/mL) [19] = experiment: as above; details: 72 h
NK-92 (IL-2 2.5 ng/mL) [20] = experiment: as above; details: 72 h
NK-YS (IL-2 2.5 ng/mL) [21] = experiment: as above; details: 72 h
NKL (IL-2 2.5 ng/mL) [22] = experiment: as above; details: 72 h
SNK-6 (IL-2 2.5 ng/mL) [23] = experiment: as above; details: 72 h
YT (IL-2 2.5 ng/mL) [24] = experiment: as above; details: 72 h
[25] = system: normal primary NK cells, pool 1 (3 donors) (IL-2 2.5 ng/mL); experiment: as above; details: 72 h
[26] = system: normal primary NK cells, pool 1 (3 donors), resting (IL-2 0 ng/mL); experiment: as above; details: 72 h
[27] = system: normal primary NK cells, pool 2 (3 donors) (IL-2 2.5 ng/mL); experiment: as above; details: 72 h
[28] = system: normal primary NK cells, pool 3 (3 donors) (IL-2 2.5 ng/mL); experiment: as above; details: 72 h

CCN1CCN(Cc2ccc(-c3cc4c(N[C@H](C)c5ccccc5)ncnc4[nH]3)cc2)CC1 [NVP-AEE788] (max concentration tested 2500 nM)
percent inhibition of viability [%]
Details | 0.25 nM | 2.5 nM | 25 nM | 250 nM | 2500 nM
DERL-7 (IL-2 2.5 ng/mL) [2] | -0.87 | 0.92 | 1.23 | 5.24 | 19.9
IMC-1 (IL-2 20 ng/mL) [3] | -8.78 | -2.35 | 1.14 | -4.8 | 5.2
KAI3 (IL-2 2.5 ng/mL) [4] | -3.14 | -7.58 | -0.99 | 5.51 | 26.6
KHYG-1 (IL-2 2.5 ng/mL) [5] | -7.12 | -8.65 | -3.24 | -0.41 | 22.7
NK-92 (IL-2 2.5 ng/mL) [6] | -16 | -4.1 | -2.66 | 13.6 | 51
NK-YS (IL-2 2.5 ng/mL) [7] | -8.61 | -8.85 | -3.03 | -1.23 | 17.7
NKL (IL-2 2.5 ng/mL) [8] | -2.78 | 3.21 | 7.84 | 20 | 48.2
SNK-6 (IL-2 2.5 ng/mL) [9] | -12.2 | -14.1 | -23.9 | -6.92 | 9.17
YT (IL-2 2.5 ng/mL) [10] | -6.59 | -5.53 | -3.48 | 7.61 | 27.4
[1] | -8.59 | -5.81 | -0.99 | 4.64 | 27.8
[11] | 4.7 | 13.8 | 6.81 | 9.36 | 16.1
[12] | -1.29 | 14.4 | 9.7 | 11.1 | 5.88
[13] | -10.9 | 9.29 | 3.66 | 5.84 | 2.8
[14] | -4.61 | 9.35 | 9.18 | 5.89 | -1.16

Details | drug sensitivity score
DERL-7 (IL-2 2.5 ng/mL) [16] | 1.24
IMC-1 (IL-2 20 ng/mL) [17] | 0
KAI3 (IL-2 2.5 ng/mL) [18] | 1.9
KHYG-1 (IL-2 2.5 ng/mL) [19] | 0.75
NK-92 (IL-2 2.5 ng/mL) [20] | 4.8
NK-YS (IL-2 2.5 ng/mL) [21] | 0.35
NKL (IL-2 2.5 ng/mL) [22] | 4.63
SNK-6 (IL-2 2.5 ng/mL) [23] | 0
YT (IL-2 2.5 ng/mL) [24] | 2.2
[15] | 1.88
[25] | 0
[26] | 0.04
[27] | 0
[28] | 0

S=P(N1CC1)(N1CC1)N1CC1 [Thio-TEPA] (max concentration tested 50000 nM)
percent inhibition of viability [%]
Details | 5 nM | 50 nM | 500 nM | 5000 nM | 50000 nM
DERL-7 (IL-2 2.5 ng/mL) [2] | 1.93 | 5.03 | -0.04 | 1.45 | 3.25
IMC-1 (IL-2 20 ng/mL) [3] | -2.71 | -4.91 | -3.42 | -4.6 | 8.77
KAI3 (IL-2 2.5 ng/mL) [4] | -3.61 | -4.29 | 12.8 | 35.4 | 69.6
KHYG-1 (IL-2 2.5 ng/mL) [5] | -7.42 | -4.16 | 1.44 | 6.58 | 8.07
NK-92 (IL-2 2.5 ng/mL) [6] | -3.47 | 8.15 | 14.3 | 25.1 | 37.1
NK-YS (IL-2 2.5 ng/mL) [7] | -1.57 | -3.69 | 3 | 9.54 | 24.2
NKL (IL-2 2.5 ng/mL) [8] | -8.09 | 4.28 | 15.5 | 33.8 | 72.4
SNK-6 (IL-2 2.5 ng/mL) [9] | -0.04 | -12.4 | -4.8 | -5.86 | 41.2
YT (IL-2 2.5 ng/mL) [10] | -4.88 | -5.74 | 1.43 | 6.47 | 8.31
[1] | -5.81 | -5.71 | -4.89 | 3.45 | 9
[11] | 0.27 | 11.7 | 6.98 | 8.81 | 2.16
[12] | -8.22 | 7.58 | 6.34 | 14.9 | 17.1
[13] | -1.52 | 9.19 | 11.7 | 8.43 | 19.8
[14] | -5.53 | 7.66 | 3.04 | 4.82 | 3.08

Details | drug sensitivity score
DERL-7 (IL-2 2.5 ng/mL) [16] | 0
IMC-1 (IL-2 20 ng/mL) [17] | 0
KAI3 (IL-2 2.5 ng/mL) [18] | 8.32
KHYG-1 (IL-2 2.5 ng/mL) [19] | 0
NK-92 (IL-2 2.5 ng/mL) [20] | 5.84
NK-YS (IL-2 2.5 ng/mL) [21] | 1.65
NKL (IL-2 2.5 ng/mL) [22] | 8.54
SNK-6 (IL-2 2.5 ng/mL) [23] | 1.69
YT (IL-2 2.5 ng/mL) [24] | 0
[15] | 0
[25] | 0
[26] | 1.68
[27] | 1.52
[28] | 0
